Assay results from patent publication US8759535B2, “Substituted fused imidazole derivatives, pharmaceutical compositions, and methods of use thereof” (High Point Pharmaceuticals, LLC, priority 2010, dated 2014).
Structures can show the parent of a compound that is named as a salt.

Each molecule was assayed on HMOX1 (assay: HMOX1 Protein Assay (immunostaining of HO-1 in NHLF cells, GE InCell 1000)). Conditions: Homo sapiens, fold change above DMSO treated cells, 3 μM compound (asterisk), 16 h.
Type: cell-based
Summary of the method: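 Fold induction of HO-1 over vehicle, normally at 5 μM compound (asterisk marks 3 μM), in 0.8% DMSO medium. Normal human lung fibroblasts were treated 16 h, then paraformaldehyde-fixed, anti-HO-1/Alexa 488 stained with Hoechst, and read by high-content imaging.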
Molecule `Cn1c(Nc2nc3ccc(OC(F)(F)F)cc3s2)nc2cc(C(=O)NCCN3CCS(=O)(=O)CC3)ccc21` [Example 342, 1-Methyl-2-(6-trifluoromethoxy-benzothiazol-2-ylamino)-1H-benzoimidazole-5-carboxylic acid [2-(1,1-dioxo-thiomorpholin-4-yl)-ethyl]-amide] has a fold induction at 3 µM of 36.8.
`C[C@H](NC(=O)c1ccc2c(c1)nc(Nc1nc3ccc(Cl)cc3s1)n2C)C(=O)N(C)C` [Example 462, 2-(6-Chloro-benzothiazol-2-ylamino)-1-methyl-1H-benzoimidazole-5-carboxylic acid ((S)-1-dimethylcarbamoyl-ethyl)-amide] was tested, and the fold induction at 3 µM was 20.
In the case of `Cn1c(Nc2nc3ccc(Cl)cc3s2)nc2cc(C(=O)NCCOCC(F)F)ccc21` [Example 259, 2-(6-Chloro-benzothiazol-2-ylamino)-1-methyl-1H-benzoimidazole-5-carboxylic acid [2-(2,2-difluoro-ethoxy)-ethyl]-amide], the fold induction at 3 µM is reported as 25.4.
`Cn1c(Nc2nc3ccc(Cl)cc3s2)nc2cc(C(=O)NCCN3CCCCC3)ccc21` [Example 334, 2-(6-Chloro-benzothiazol-2-ylamino)-1-methyl-1H-benzoimidazole-5-carboxylic acid (2-piperidin-1-yl-ethyl)-amide] was tested, and the fold induction at 3 µM was 13.4.

Same assay, conditions: Homo sapiens, fold change above DMSO treated cells, 5 μM compound, 16 h
For `CCNC(=O)c1ccc2c(c1)nc(Nc1nc3ccc(OC(F)(F)F)cc3s1)n2C(C)C` [Example 161, 1-Isopropyl-2-(6-trifluoromethoxy-benzothiazol-2-ylamino)-1H-benzoimidazole-5-carboxylic acid ethylamide], the fold induction at 5 µM was 19.1.
`COC(=O)c1cc2nc(Nc3nc4ccc(OC(F)(F)F)cc4s3)n(C)c2cc1OC` [Example 61, 6-Methoxy-1-methyl-2-(6-trifluoromethoxy-benzothiazol-2-ylamino)-1H-benzoimidazole-5-carboxylic acid methyl ester] gave a fold induction at 5 µM of 12.1.
`COCCn1c(Nc2nc3ccc(Cl)cc3s2)nc2cc(C(=O)NCC(=O)N(C)C)ccc21` [Example 366, 2-(6-Chloro-benzothiazol-2-ylamino)-1-(2-methoxy-ethyl)-1H-benzoimidazole-5-carboxylic acid dimethylcarbamoylmethyl-amide] showed a fold induction at 5 µM of 18.8.
In the case of `Cn1c(Nc2nc3ccc(OC(F)(F)F)cc3s2)nc2cc(C(=O)NCC(=O)OC(C)(C)C)ccc21` [Example 91, {[1-Methyl-2-(6-trifluoromethoxy-benzothiazol-2-ylamino)-1H-benzoimidazole-5-carbonyl]-amino}-acetic acid tert-butyl ester], the fold induction at 5 µM is reported as 10.1.
In the case of `Cc1ccc2nc(Nc3nc4cc(C(=O)O)ccc4n3C)sc2c1` [Example 120, 1-Methyl-2-(6-methyl-benzothiazol-2-ylamino)-1H-benzimidazole-5-carboxylic acid], the fold induction at 5 µM is reported as 1.7.
`CSCCNC(=O)c1ccc2c(c1)nc(Nc1nc3ccc(OC(F)(F)F)cc3s1)n2C` [Example 101, 1-Methyl-2-(6-trifluoromethoxy-benzothiazol-2-ylamino)-1H-benzoimidazole-5-carboxylic acid (2-methylsulfanyl-ethyl)-amide] showed a fold induction at 5 µM of 11.2.
For `COCCOCCNC(=O)c1ccc2c(c1)nc(Nc1nc3ccc(OC(F)(F)F)cc3s1)n2C` [Example 260, 1-Methyl-2-(6-trifluoromethoxy-benzothiazol-2-ylamino)-1H-benzoimidazole-5-carboxylic acid [2-(2-methoxy-ethoxy)-ethyl]-amide], the fold induction at 5 µM was 27.1.
With `CNCCOCCNC(=O)c1ccc2c(c1)nc(Nc1nc3ccc(OC(F)(F)F)cc3s1)n2C` [Example 271, 1-Methyl-2-(6-trifluoromethoxy-benzothiazol-2-ylamino)-1H-benzoimidazole-5-carboxylic acid [2-(2-methylamino-ethoxy)-ethyl]-amide hydrochloride] the fold induction at 5 µM was 69.9.
For `Cn1c(Nc2nc3cc(F)c(F)cc3s2)nc2cc(C(=O)NCCO)ccc21` [Example 36, 2-(5,6-Difluoro-benzothiazol-2-ylamino)-1-methyl-1H-benzoimidazole-5-carboxylic acid (2-hydroxy-ethyl)-amide], the fold induction at 5 µM was 13.8.
Work on `Cn1c(Nc2nc3ccc(OC(F)(F)F)cc3s2)nc2cc(C(=O)NC3CCN(CC(C)(C)O)C3)ccc21` (stereo not shown) [Example 298, 1-Methyl-2-(6-trifluoromethoxy-benzothiazol-2-ylamino)-1H-benzoimidazole-5-carboxylic acid [1-(2-hydroxy-2-methyl-propyl)-pyrrolidin-3-yl]-amide] yielded a fold induction at 5 µM of 21.1.
`Cn1c(Nc2nc3ccc(Cl)cc3s2)nc2cc(C(=O)NC3CCN(S(C)(=O)=O)CC3)ccc21` [Example 320, 2-(6-Chloro-benzothiazol-2-ylamino)-1-methyl-1H-benzoimidazole-5-carboxylic acid (1-methanesulfonyl-piperidin-4-yl)-amide] gave a fold induction at 5 µM of 20.
In the case of `CNCCn1c(Nc2nc3ccc(Cl)cc3s2)nc2cc(C(=O)NCC(=O)N(C)C)ccc21` [Example 367, 2-(6-Chloro-benzothiazol-2-ylamino)-1-(2-methylamino-ethyl)-1H-benzoimidazole-5-carboxylic acid dimethylcarbamoylmethyl-amide hydrochloride], the fold induction at 5 µM is reported as 25.4.
`Cn1c(Nc2nc3ccc(OC(F)(F)F)cc3s2)nc2cc(C(=O)NC3CCNC3)ccc21` (stereo not shown) [Example 289, 1-Methyl-2-(6-trifluoromethoxy-benzothiazol-2-ylamino)-1H-benzoimidazole-5-carboxylic acid pyrrolidin-3-ylamide hydrochloride] showed a fold induction at 5 µM of 44.6.
Work on `COCCn1c(Nc2nc3ccc(Cl)cc3s2)nc2cc(C(=O)NCC(=O)N3CC[C@H](O)C3)ccc21` [Example 405, 2-(6-Chloro-benzothiazol-2-ylamino)-1-(2-methoxy-ethyl)-1H-benzoimidazole-5-carboxylic acid [2-((S)-3-hydroxy-pyrrolidin-1-yl)-2-oxo-ethyl]-amide] yielded a fold induction at 5 µM of 21.4.
Molecule `Cn1c(Nc2nc3ccc(OC(F)(F)F)cc3s2)nc2cc(C(=O)NCC3CNCCO3)ccc21` (stereo not shown) [Example 56, 1-Methyl-2-(6-trifluoromethoxy-benzothiazol-2-ylamino)-1H-benzoimidazole-5-carboxylic acid (morpholin-2-ylmethyl)-amide hydrochloride] has a fold induction at 5 µM of 16.1.
`CNC(=O)c1ccc2c(c1)nc(Nc1nc3cc(OC(F)(F)F)ccc3s1)n2C` [Example 115, 1-Methyl-2-(5-trifluoromethoxy-benzothiazol-2-ylamino)-1H-benzimidazole-5-carboxylic acid methylamide] was tested, and the fold induction at 5 µM was 1.5.
In the case of `COCCn1c(Nc2nc3ccc(Cl)cc3s2)nc2cc(C(=O)NC3CCN(CCO)CC3)ccc21` [Example 301, 2-(6-Chloro-benzothiazol-2-ylamino)-1-(2-methoxy-ethyl)-1H-benzoimidazole-5-carboxylic acid [1-(2-hydroxy-ethyl)-piperidin-4-yl]-amide], the fold induction at 5 µM is reported as 27.8.
For `Cn1c(Nc2nc3ccc(OC(F)(F)F)cc3s2)nc2cc(C(=O)NCCN3CCOCC3)c(F)cc21` [Example 59, 6-Fluoro-1-methyl-2-(6-trifluoromethoxy-benzothiazol-2-ylamino)-1H-benzoimidazole-5-carboxylic acid (2-morpholin-4-yl-ethyl)-amide], the fold induction at 5 µM was 49.8.
